Some targets named below: BRD4 (Homo sapiens, UniProt O60885); DYRK1A (Homo sapiens, UniProt Q13627); PAK1 (Homo sapiens, UniProt Q13153).
Common to all, as to assay: biochemical
What all share (parameters): Thermal shift (DSF, SYPRO Orange) Tm shift of recombinant kinase domains at 10 uM compound

For the next experiment, the target named is T1, CSNK2a2 (Homo sapiens, UniProt P19784).
T1 construct: kinase domain

The target of a further experiment is T2, FECH (Homo sapiens, UniProt P22830).
T2 sequence (P22830 1-423): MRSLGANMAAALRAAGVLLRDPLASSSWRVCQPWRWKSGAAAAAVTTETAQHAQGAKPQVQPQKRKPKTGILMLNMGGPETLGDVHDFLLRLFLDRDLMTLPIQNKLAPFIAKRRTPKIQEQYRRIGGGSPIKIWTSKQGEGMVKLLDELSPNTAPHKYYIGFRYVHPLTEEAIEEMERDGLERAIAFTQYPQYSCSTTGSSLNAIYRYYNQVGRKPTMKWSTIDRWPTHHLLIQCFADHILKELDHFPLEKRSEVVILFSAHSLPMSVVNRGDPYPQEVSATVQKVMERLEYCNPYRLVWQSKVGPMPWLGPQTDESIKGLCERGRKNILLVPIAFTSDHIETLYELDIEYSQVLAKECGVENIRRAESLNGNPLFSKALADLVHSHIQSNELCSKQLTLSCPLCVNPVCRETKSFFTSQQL

Another experiment concerns the target T3, MEK4 (Homo sapiens, UniProt P45985).
T3 construct: gene MAP2K4; kinase domain
T3 sequence (P45985 1-399): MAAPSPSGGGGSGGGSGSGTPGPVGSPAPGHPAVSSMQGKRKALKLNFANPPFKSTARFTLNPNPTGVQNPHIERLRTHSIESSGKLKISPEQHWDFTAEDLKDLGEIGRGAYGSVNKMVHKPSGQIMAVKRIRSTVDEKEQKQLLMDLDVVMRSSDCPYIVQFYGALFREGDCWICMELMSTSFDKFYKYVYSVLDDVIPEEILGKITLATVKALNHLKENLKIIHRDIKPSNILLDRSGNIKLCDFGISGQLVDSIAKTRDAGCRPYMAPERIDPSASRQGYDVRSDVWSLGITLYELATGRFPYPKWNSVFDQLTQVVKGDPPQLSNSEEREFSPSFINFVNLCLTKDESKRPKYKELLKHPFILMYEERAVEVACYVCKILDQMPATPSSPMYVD

Another experiment deals with T4, NQO2 (Homo sapiens, UniProt P16083).
T4 sequence (P16083 1-231): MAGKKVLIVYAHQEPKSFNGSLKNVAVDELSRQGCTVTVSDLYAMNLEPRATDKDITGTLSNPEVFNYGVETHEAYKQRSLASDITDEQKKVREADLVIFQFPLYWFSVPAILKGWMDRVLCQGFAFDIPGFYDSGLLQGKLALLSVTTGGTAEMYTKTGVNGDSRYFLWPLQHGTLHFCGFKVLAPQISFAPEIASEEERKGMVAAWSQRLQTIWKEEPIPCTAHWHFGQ

A further experiment addresses T5, PLK4 (Homo sapiens, UniProt O00444).
T5 sequence (O00444 1-970): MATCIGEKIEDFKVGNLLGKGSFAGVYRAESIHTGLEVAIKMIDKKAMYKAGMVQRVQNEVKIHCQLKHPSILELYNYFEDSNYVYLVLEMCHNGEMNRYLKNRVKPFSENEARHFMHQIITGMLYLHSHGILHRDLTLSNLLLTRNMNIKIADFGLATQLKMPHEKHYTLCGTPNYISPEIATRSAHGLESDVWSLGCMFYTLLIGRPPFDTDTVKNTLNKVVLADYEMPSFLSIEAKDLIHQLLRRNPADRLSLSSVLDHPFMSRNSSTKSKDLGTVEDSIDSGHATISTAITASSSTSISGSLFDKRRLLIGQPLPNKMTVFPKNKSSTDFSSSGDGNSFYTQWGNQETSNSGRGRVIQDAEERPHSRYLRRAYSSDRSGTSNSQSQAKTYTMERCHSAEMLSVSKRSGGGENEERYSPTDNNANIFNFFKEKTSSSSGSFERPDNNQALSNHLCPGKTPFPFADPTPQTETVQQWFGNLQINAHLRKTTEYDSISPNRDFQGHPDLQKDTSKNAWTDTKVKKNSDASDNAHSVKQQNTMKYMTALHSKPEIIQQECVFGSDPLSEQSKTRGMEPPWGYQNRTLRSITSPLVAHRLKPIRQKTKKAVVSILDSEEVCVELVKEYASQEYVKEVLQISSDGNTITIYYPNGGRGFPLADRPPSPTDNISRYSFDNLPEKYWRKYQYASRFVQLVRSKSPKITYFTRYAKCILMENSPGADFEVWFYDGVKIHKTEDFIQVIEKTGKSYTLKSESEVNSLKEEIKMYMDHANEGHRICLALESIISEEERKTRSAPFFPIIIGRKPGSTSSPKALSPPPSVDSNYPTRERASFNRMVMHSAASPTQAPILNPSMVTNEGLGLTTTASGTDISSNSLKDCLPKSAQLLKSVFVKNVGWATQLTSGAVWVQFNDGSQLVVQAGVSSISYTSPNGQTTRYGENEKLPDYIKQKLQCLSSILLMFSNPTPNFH

Read-outs that look alike come from different tables or passages of the source.

T1 sequence (P19784 whole entry, the tested form may be a part): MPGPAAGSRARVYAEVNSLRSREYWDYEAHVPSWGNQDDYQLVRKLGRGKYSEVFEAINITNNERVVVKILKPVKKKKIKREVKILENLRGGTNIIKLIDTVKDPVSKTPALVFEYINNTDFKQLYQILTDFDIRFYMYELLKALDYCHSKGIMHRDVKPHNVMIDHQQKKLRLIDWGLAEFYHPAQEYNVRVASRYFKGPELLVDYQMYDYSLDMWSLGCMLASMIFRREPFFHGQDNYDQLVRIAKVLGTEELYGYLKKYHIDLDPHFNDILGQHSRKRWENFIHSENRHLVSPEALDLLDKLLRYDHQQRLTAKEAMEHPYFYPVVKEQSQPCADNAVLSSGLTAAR
PAK1, sequence (Q13153 whole entry): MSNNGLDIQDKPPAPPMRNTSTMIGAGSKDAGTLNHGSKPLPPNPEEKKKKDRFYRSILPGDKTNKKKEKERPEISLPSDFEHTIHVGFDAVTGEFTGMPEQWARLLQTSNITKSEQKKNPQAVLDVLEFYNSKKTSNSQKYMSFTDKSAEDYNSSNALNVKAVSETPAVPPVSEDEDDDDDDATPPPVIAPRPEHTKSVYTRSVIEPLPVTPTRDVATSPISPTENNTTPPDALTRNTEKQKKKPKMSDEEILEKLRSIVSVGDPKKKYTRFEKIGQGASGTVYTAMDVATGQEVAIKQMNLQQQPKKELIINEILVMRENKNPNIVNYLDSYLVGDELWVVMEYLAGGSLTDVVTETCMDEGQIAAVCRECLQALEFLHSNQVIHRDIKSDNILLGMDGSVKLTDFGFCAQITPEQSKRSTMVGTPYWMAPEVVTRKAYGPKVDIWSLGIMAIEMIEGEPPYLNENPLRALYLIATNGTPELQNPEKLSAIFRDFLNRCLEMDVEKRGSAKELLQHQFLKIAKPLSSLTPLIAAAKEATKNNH

On to `CC(C)Oc1ccc2ccn(-c3cncc(-c4ccc(C(=O)O)cc4)n3)c2c1` [6c], for which the ΔTm at 10 µM on BRD4 (read-out: 6c) was 2 °C; at CSNK2a2 (read-out: 6c), 16 °C; at DYRK1A (read-out: 6c), 6 °C; on FECH (read-out: 6c) it was -3 °C; at MEK4 (read-out: 6c), 9 °C; on NQO2 (read-out: 6c), -1 °C. The values for the ΔTm at 10 µM at PAK1 (read-out: 6c) and at PLK4 (read-out: 6c) were 0 °C and 10 °C, respectively.
With `COc1ccc(OC(C)C)cc1Nc1cncc(-c2ccc(C(=O)O)cc2)n1` [7c], the ΔTm at 10 µM was 1 °C at BRD4 (read-out: 7c); 15 °C on CSNK2a2 (read-out: 7c); 5 °C on DYRK1A (read-out: 7c); 0 °C at FECH (read-out: 7c); 2 °C on MEK4 (read-out: 7c); -1 °C on NQO2 (read-out: 7c). The values for the ΔTm at 10 µM at PAK1 (read-out: 7c) and on PLK4 (read-out: 7c) were -1 °C and 6 °C, respectively.
`CC(C)Nc1ccc2cnn(-c3cncc(-c4ccc(C(=O)O)cc4)n3)c2c1` [compound 2, 2]: the ΔTm at 10 µM is 2 °C on BRD4 (read-out: 2); 15 °C on CSNK2a2 (read-out: 2); 7 °C at DYRK1A (read-out: 2); 0 °C on FECH (read-out: 2); 5 °C on MEK4 (read-out: 2); -1 °C on NQO2 (read-out: 2). The figures for the ΔTm at 10 µM on PAK1 (read-out: 2) and at PLK4 (read-out: 2) were 1 °C and 11 °C, respectively.

The values above are taken from paper doi:10.1101/2023.12.04.569845, “Identification of 4-(6-((2-methoxyphenyl)amino)pyrazin-2-yl)benzoic acids as CSNK2A inhibitors with antiviral activity and improved selectivity over PIM3” (bioRxiv, 2023).
